We go through 15 molecules from ChEMBL document CHEMBL4417638, “Novel cyclic peptides and uses thereof” (2018).

Assay [1] relates to RAW264.7. Briefly: Inhibition of R-FSL-1-induced nitric oxide production in mouse RAW264.7 cells at 10 uM pre-incubated for 1 hr before R-FSL-1 stimulation by fluorescence based assay relative to control. Format: functional.
The test system of assay [2] is RAW264.7. Nature of the assay: Inhibition of R-FSL-1-induced CCL2 production in mouse RAW264.7 cells at 10 uM pre-incubated for 30 mins before R-FSL-1 stimulation for 4 hrs by ELISA. Format: functional, cell-based.
Assay [3] deals with RAW264.7. Briefly: Inhibition of R-FSL-1-induced TNFalpha production in mouse RAW264.7 cells at 10 uM pre-incubated for 30 mins before R-FSL-1 stimulation for 4 hrs by ELISA. Format: functional, cell-based. On the technique in general: An ELISA detects its analyte on a solid surface through an enzyme-linked reagent.
Assay [4] concerns Mus musculus. Briefly: Anti-atherosclerotic activity in atherogenic diet fed apoE-/- mouse assessed as reduction in aortic lesions at 300 nmol/kg, sc dosed daily for 8 weeks from 12 weeks of age relative to control. It counts as functional.
The next assay addresses Platelet glycoprotein 4 (Rattus norvegicus, UniProt Q07969). Nature of the assay: Displacement of [125]-Tyr-Bpa-Ala-Hexarelin from CD36 in Sprague-Dawley rat heart membranes incubated for 60 mins. It counts as cell membranes.
Assay [5] relates to BMDM. Nature of the assay: Inhibition of R-FSL-1-induced IL-1beta production in C57BL/6 mouse BMDM at 10 pM to 1 uM pre-incubated for 30 mins before R-FSL-1 stimulation for 4 hrs by ELISA. It counts as functional, cell-based.
In assay [6] the test system is BMDM. Nature of the assay: Inhibition of R-FSL-1-induced TNFalpha production in C57BL/6 mouse BMDM at 10 pM to 1 uM pre-incubated for 30 mins before R-FSL-1 stimulation for 4 hrs by ELISA. Format: functional, cell-based.
Assay [7] relates to Mus musculus. Nature of the assay: Protection against photoreceptor degeneration in mouse model of intense blue light-induced dry age related macular degeneration assessed as improvement of retinal function by measuring increase in a-wave and b-wave amplitudes at 289 nmol/kg, sc starting one day after start of blue-light exposure for 7 consecutive days by electroretinography analysis. Format: functional, organism-based.

Assay [8] relates to Mus musculus. Nature of the assay: Protection against photoreceptor degeneration in mouse model of intense blue light-induced dry age related macular degeneration assessed as reduction in subretinal inflammation by measuring reduction in IL-1p-expressing immune cell infiltration in retina at 289 nmol/kg, sc starting one day after start of blue-light exposure for 7 consecutive days. It counts as functional, organism-based.

The subject of assay [9] is Mus musculus. Briefly: Protection against photoreceptor degeneration in mouse model of intense blue light-induced dry age related macular degeneration assessed as preservation of ONL thickness at 289 nmol/kg, sc starting one day after start of blue-light exposure for 7 consecutive days. Format: functional, organism-based.

Calls of active or inactive are those of the source. The rule behind the calls is not given here. Numbered stars: 1 amine (or outer) side, 2 acyl side, 3 side chain; on linkers, the order of the positions; unused ones are H or OH. Square brackets hold non-standard residues; d marks the D form. Peptide text beside a SMILES is read from it. azaTyr = O=C(N(Cc1ccc(O)cc1)N[*:1])[*:2]

Sequence of Platelet glycoprotein 4 (Q07969 whole entry): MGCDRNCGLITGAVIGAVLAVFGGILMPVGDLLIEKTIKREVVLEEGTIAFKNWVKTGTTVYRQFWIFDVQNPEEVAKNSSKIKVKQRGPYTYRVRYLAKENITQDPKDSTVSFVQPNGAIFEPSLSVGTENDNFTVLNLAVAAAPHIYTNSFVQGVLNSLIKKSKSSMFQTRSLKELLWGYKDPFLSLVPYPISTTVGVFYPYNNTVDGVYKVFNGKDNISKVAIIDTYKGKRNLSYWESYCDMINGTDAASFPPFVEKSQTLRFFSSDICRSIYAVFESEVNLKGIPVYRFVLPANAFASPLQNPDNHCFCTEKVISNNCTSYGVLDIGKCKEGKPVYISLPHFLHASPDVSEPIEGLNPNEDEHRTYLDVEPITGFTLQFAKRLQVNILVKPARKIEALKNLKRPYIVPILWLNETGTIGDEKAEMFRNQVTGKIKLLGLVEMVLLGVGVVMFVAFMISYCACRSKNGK

The term inhibition denotes the share of the control response that was lost under treatment. For the molecule `C=CCN1CC#CCN(NC(=O)[C@@H](C)N)C(=O)N[C@H](Cc2c[nH]c3ccccc23)C(=O)N[C@@H](C)C(=O)NN(Cc2ccc(OC)cc2)C(=O)N[C@H](Cc2ccccc2)C(=O)N[C@H](C(N)=O)CCCC1`, the inhibition result with RAW264.7 [1] is “Active”.

As for `CN1CC#CCN(NC(=O)[C@@H](Cc2c[nH]c3ccccc23)NC(=O)[C@@H](N)Cc2cnc[nH]2)C(=O)N[C@@H](Cc2c[nH]c3ccccc23)C(=O)N[C@H](Cc2ccccc2)C(=O)N[C@H](C(N)=O)CCCC1`, the inhibition entry in the assay with RAW264.7 [2] and in the assay with RAW264.7 [3] was “inactive” throughout.

As for `C=CCN1CC#CCN(NC(=O)[C@H](C)NC(C)=O)C(=O)N[C@H](Cc2c[nH]c3ccccc23)C(=O)N[C@@H](C)C(=O)N[C@@H](Cc2c[nH]c3ccccc23)C(=O)N[C@H](Cc2ccccc2)C(=O)N[C@H](C(N)=O)CCCC1`, the inhibition entry with Mus musculus [4], in the assay on RAW264.7 [2] and with RAW264.7 [3] was “Active” in each case. The molecule further returned an inhibition at 10 µM with RAW264.7 [1] of 80%.

Turning to `C=CCN1CC#CCN(NC(=O)[C@@H](Cc2c[nH]c3ccccc23)NC(=O)[C@@H](N)Cc2cnc[nH]2)C(=O)N[C@@H](Cc2c[nH]c3ccccc23)C(=O)N[C@H](Cc2ccccc2)C(=O)N[C@H](C(N)=O)CCCC1`, the inhibition result in the assay with RAW264.7 [1], in the assay on RAW264.7 [2] and with RAW264.7 [3] was “Active” each time.

Take `C=CCN1CC#CC[C@H](NC(=O)[C@H](C)N)C(=O)N[C@H](Cc2c[nH]c3ccccc23)C(=O)N[C@@H](C)C(=O)N[C@@H](Cc2c[nH]c3ccccc23)C(=O)N[C@H](Cc2ccccc2)C(=O)N[C@H](C(N)=O)CCCC1`: in the assay with RAW264.7 [1], the inhibition entry is “Active”.

In the case of `C=CCN1CC#CCN(NC(=O)[C@H](C)N)C(=O)N[C@H](Cc2c[nH]c3ccccc23)C(=O)N[C@@H](C)C(=O)N[C@H](C(=O)N[C@H](Cc2ccccc2)C(=O)N[C@@H](CCCCN)C(N)=O)CCCC1`, the inhibition result with RAW264.7 [1] is “Active”.

With `C[C@H](NC(=O)[C@@H](Cc1c[nH]c2ccccc12)NC(=O)[C@@H](N)Cc1cnc[nH]1)C(=O)NN(Cc1ccc(O)cc1)C(=O)N[C@H](Cc1ccccc1)C(=O)N[C@@H](CCCCN)C(N)=O` (H-H[dW]A[azaTyr][dF]K-NH2), the inhibition result with Mus musculus [4], with RAW264.7 [2] and in the assay with RAW264.7 [3] was “Active” throughout.

Regarding `C=CCN1CC#CCN(NC(=O)[C@H](C)N)C(=O)N[C@@H](C)C(=O)N[C@@H](Cc2c[nH]c3ccccc23)C(=O)N[C@H](Cc2ccccc2)C(=O)N[C@H](C(N)=O)CCCC1`, the inhibition entry in the assay with RAW264.7 [1], in the assay on RAW264.7 [2] and in the assay with RAW264.7 [3] was “Active” throughout.

On to `C=CCN1CC#CCN(N)C(=O)N[C@H](Cc2c[nH]c3ccccc23)C(=O)N[C@@H](C)C(=O)N[C@@H](Cc2c[nH]c3ccccc23)C(=O)N[C@H](Cc2ccccc2)C(=O)N[C@H](C(N)=O)CCCC1`, for which, in the assay on Mus musculus [4], the inhibition entry is “Active”. Besides, the inhibition at 10 µM with RAW264.7 [1] worked out at 80%. The inhibition result in the assay on RAW264.7 [2] and with RAW264.7 [3] was “inactive” throughout.

A word on the IC50: it is the concentration that inhibits the measured activity by half. Higher therefore signals lower potency. For the molecule `C[C@@H]1NC(=O)[C@@H](Cc2c[nH]c3ccccc23)NC(=O)N(NC(=O)CN)CC#CCN(CC2CC2)CCCC[C@@H](C(N)=O)NC(=O)[C@@H](Cc2ccccc2)NC(=O)[C@H](Cc2c[nH]c3ccccc23)NC1=O`, the inhibition result with RAW264.7 [1] was “Active”. Moreover, the IC50 at Platelet glycoprotein 4 turned out to be 980 nM.

On to `C=CCN1CC#CC[C@H](NC(=O)[C@H](C)N)C(=O)N[C@@H](C)C(=O)N[C@@H](Cc2c[nH]c3ccccc23)C(=O)N[C@H](Cc2ccccc2)C(=O)N[C@H](C(N)=O)CCCC1`, for which the inhibition result in the assay with RAW264.7 [1] was “Active”.

On to `C=CCN1CC#CCN(NC(C)=O)C(=O)N[C@H](Cc2c[nH]c3ccccc23)C(=O)N[C@@H](C)C(=O)N[C@@H](Cc2c[nH]c3ccccc23)C(=O)N[C@H](Cc2ccccc2)C(=O)N[C@H](C(N)=O)CCCC1`, for which the inhibition entry in the assay on Mus musculus [4], with RAW264.7 [2] and in the assay with RAW264.7 [3] was “Active” in each case. In addition, the inhibition at 10 µM in the assay on RAW264.7 [1] stood at 80%.

In the case of `CCCN1CC#CCN(NC(=O)CN)C(=O)N[C@H](Cc2c[nH]c3ccccc23)C(=O)N[C@@H](C)C(=O)N[C@@H](Cc2c[nH]c3ccccc23)C(=O)N[C@H](Cc2ccccc2)C(=O)N[C@H](C(N)=O)CCCC1`, the inhibition result in the assay with RAW264.7 [1] is “Active”. Moreover, the 50% inhibitory concentration (IC50) on Platelet glycoprotein 4 was found to be 1490 nM.

On to `C=CCN1CC#CCN(NC(=O)[C@H](C)N)C(=O)N[C@H](Cc2c[nH]c3ccccc23)C(=O)N[C@@H](C)C(=O)N[C@@H](Cc2c[nH]c3ccccc23)C(=O)N[C@H](Cc2ccccc2)C(=O)N[C@H](C(N)=O)CCCC1`, for which the inhibition result in the assay with RAW264.7 [1], in the assay with RAW264.7 [2], in the assay on BMDM [5], with BMDM [6] and with RAW264.7 [3] was “Active” throughout. In addition, the outcome in the assay on Mus musculus [7], in the assay on Mus musculus [8] and in the assay with Mus musculus [9] was Active.

`C=CCN1CC#CCN(NC(=O)CN)C(=O)N[C@H](Cc2c[nH]c3ccccc23)C(=O)N[C@@H](C)C(=O)N[C@@H](Cc2c[nH]c3ccccc23)C(=O)N[C@H](Cc2ccccc2)C(=O)N[C@H](C(N)=O)CCCC1` displayed an IC50 at Platelet glycoprotein 4 of 12900 nM.
